# Test results: ChEMBL document CHEMBL1201862, “PubChem BioAssay data set” (2004)
# The source made the active and inactive calls. Cut-off read from the data, not from the text of the source, for most assays here: actives have a measured EC50 and inactives only a lower limit.
# What was measured:
# [1] = biological target: T1, Alkaline phosphatase, tissue-nonspecific isozyme (Homo sapiens, UniProt P05186); assay: TNAP enzyme inhibition by screening hits, dose response, selectivity assay for mouse IAP inhibitor project, biochemical, human TNAP, uHTS hits (AID 488906); format: functional
# T1 sequence (P05186 whole entry): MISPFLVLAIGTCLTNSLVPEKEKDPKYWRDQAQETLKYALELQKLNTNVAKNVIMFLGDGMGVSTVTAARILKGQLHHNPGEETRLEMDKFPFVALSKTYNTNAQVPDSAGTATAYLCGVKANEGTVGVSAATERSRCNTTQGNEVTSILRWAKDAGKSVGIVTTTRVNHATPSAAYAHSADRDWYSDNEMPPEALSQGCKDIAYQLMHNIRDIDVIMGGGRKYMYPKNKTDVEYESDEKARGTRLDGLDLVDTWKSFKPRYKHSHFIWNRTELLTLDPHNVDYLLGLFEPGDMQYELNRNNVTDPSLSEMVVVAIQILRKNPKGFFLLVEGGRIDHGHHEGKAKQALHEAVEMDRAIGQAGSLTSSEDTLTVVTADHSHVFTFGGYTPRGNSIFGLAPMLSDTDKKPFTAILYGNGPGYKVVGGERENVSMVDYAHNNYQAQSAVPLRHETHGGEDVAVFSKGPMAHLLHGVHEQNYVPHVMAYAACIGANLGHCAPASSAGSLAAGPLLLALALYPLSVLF
# [2] = biological target: Intestinal-type alkaline phosphatase (Homo sapiens, UniProt P09923); assay: inhibition of human intestinal alkaline phosphatase – biochemical, dose response (AID 488876); format: functional
# [3] = biological target: Intestinal-type alkaline phosphatase (Mus musculus, UniProt P24822); assay: PubChem AID 488785; format: functional
# [4] = Counterscreen for AddAB inhibitors: absorbance-based bacterial cell-based high throughput dose response assay for inhibitors of bacterial viability. [Related pubchem assays (depositor defined):AID435030, AID449728, AID449731, AID488942, AID488955, AID488956]; format: functional
# BJ [5] = assay: BJ-TERT-LT-ST fibroblast viability loss – cell-based, RAS-independent, luminescence, dose response (AID 1935); format: functional; conditions: Homo sapiens;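 note: BJ fibroblasts immortalized with TERT plus LT and ST oncogenes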
# [6] = HEK-293T viability loss after treatment – luminescence, T-cell screen hits, cytotoxicity control for TCR NF-kB inhibitor project, dose response (AID 489026); format: functional, cell-based;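 note: cells exposed to compound about 14 hours before the viability readout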
# Streptococcus = assay: GAS UMAA2166 growth inhibition – luminescence, BacTiterGlo, counter-screen for streptokinase expression inhibitor project, dose response (AID 1915); format: functional, organism-based;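 note: potency for reduction of bacterial viability or growth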
# cells = format: functional, cell-based
# [7] = system: Streptococcus sp. 'group A'; assay: Streptococcus pyogenes SK(-)GAS viability under kanamycin – luminescence, BacTiterGlo, confirmation, counter-screen for streptokinase expression inhibitor project, dose response (AID 1900); format: functional, organism-based
# [8] = alpha-synuclein stem-loop luciferase translation blockers – H4 neuroglioma cells, luminescence, confirmation (AID 1988); format: functional, cell-based
# [9] = alpha-synuclein stem-loop translation blockers – luminescence, H4 neuroglioblastoma cells, dose confirmation, confirmation (AID 2454); format: functional, cell-based;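 note: H4 neuroglioblastoma cells carrying an alpha-synuclein 5'UTR luciferase reporter; potency for inhibition of the luciferase signal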
# [10] = biological target: T2, Short transient receptor potential channel 4 (Mus musculus, UniProt Q9QUQ5); assay: calcium entry via TRPC4 opening agents – cell-based, HEK293 TRPC4/mu-opioid, Fluo-4 calcium, dose response (AID 434937); format: functional
# T2 sequence (Q9QUQ5 whole entry): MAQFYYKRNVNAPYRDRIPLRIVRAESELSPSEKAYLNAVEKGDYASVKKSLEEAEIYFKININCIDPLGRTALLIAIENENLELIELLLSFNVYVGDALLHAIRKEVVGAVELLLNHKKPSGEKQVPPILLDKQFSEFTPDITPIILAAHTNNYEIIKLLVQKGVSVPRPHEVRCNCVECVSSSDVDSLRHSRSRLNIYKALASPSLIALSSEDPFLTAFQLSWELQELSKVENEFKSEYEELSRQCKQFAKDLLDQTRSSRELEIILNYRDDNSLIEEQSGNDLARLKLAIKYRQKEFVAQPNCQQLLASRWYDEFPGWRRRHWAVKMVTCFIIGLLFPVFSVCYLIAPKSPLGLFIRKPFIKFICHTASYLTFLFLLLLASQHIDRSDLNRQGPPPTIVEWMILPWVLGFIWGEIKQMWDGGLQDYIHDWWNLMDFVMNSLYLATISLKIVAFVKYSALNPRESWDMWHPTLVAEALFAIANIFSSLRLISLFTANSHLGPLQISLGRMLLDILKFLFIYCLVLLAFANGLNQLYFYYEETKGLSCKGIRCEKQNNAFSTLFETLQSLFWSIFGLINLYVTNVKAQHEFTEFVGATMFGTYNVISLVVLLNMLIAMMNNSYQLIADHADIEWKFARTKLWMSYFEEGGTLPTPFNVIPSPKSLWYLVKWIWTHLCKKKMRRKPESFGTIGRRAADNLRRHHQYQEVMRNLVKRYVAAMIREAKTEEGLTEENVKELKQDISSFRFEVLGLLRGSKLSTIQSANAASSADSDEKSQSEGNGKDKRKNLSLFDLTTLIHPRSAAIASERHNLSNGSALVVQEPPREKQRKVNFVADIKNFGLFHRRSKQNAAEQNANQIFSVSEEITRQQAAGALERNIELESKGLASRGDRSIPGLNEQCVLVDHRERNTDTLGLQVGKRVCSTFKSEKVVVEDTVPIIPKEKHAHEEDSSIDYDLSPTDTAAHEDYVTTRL
# [11] = DRD fibroblast viability loss – cell-based, non-viral oncogenic, luminescence, dose response (AID 1934); format: functional; conditions: Homo sapiens
# Protein RecA = biological target: T3, Protein RecA (Mycobacterium tuberculosis, UniProt P9WHJ3); assay: Fluorescence Cell-Free Homogeneous Dose Retest to Identify Inhibitors of RecA-Intein Splicing Activity. [Related pubchem assays (depositor defined):AID2097, AID2223, AID489010, AID492950]; format: functional
# T3 sequence (P9WHJ3 whole entry): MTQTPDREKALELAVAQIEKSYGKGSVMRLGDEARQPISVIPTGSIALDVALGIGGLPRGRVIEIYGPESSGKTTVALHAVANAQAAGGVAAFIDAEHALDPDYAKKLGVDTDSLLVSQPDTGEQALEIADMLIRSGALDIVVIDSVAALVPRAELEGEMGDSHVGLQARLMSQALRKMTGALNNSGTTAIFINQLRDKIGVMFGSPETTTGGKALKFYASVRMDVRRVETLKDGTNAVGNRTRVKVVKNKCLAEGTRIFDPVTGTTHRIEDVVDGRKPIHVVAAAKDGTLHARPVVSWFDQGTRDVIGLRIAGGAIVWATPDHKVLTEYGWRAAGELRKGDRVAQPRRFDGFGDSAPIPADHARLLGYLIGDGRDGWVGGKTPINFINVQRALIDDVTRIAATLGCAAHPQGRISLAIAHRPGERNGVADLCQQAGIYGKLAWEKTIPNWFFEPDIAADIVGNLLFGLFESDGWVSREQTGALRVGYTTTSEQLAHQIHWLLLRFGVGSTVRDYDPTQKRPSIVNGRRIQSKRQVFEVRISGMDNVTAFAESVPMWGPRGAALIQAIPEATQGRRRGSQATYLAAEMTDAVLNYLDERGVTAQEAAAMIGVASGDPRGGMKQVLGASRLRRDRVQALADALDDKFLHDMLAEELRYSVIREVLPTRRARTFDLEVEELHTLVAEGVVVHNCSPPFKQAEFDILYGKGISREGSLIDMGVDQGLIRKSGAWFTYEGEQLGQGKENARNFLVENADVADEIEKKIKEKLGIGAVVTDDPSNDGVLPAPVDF
# [12] = luciferase reporter signal suppression in cells – H4 neuroglioma cells, luminescence, dose response (AID 1990); format: functional, cell-based
# [13] = biological target: T4, Replicative DNA helicase DnaB (Mycobacterium tuberculosis, UniProt P9WMR3); assay: DnaB intein splicing inhibitors, dose response, biochemical, cell-free fluorescence (AID 449749); format: functional
# T4 sequence (P9WMR3 whole entry): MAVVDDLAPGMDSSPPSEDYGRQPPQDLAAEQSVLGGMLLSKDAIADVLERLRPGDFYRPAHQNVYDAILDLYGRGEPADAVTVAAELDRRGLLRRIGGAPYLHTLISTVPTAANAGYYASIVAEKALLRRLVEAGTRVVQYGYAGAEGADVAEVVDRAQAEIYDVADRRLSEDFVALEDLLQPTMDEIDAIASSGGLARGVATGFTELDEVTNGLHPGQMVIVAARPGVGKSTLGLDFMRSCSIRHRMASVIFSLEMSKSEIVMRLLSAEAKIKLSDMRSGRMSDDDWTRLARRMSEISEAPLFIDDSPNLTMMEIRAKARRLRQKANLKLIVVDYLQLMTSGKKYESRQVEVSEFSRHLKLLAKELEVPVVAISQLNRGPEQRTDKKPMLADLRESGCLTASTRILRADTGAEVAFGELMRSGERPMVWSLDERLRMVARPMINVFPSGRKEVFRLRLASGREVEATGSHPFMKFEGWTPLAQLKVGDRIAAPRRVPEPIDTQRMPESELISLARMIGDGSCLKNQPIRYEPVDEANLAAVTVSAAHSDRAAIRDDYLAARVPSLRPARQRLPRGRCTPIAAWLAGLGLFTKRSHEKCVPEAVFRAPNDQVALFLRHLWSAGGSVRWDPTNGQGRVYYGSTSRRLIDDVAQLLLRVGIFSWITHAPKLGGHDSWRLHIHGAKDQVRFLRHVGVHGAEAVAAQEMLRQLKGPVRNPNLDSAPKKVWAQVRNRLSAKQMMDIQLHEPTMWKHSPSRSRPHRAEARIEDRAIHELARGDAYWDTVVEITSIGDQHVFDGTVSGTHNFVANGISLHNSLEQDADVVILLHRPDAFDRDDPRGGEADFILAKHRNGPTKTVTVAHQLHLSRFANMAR
# Exodeoxyribonuclease V = Exodeoxyribonuclease V (Escherichia coli (strain K12), UniProt P04993+P07648+P08394); assay: RecBCD inhibition via phage-restricted bacterial growth – absorbance, V66 E. coli, mutant T4 phage, counter-screen for AddAB inhibitor project, dose response (AID 492957); format: functional, cell-based, Escherichia coli str. K-12 substr. MG1655
# BJ [14] = assay: BJ-TERT fibroblast viability loss – cell-based, RAS-independent, luminescence, dose response (AID 1933); format: functional; conditions: Homo sapiens
# [15] = luciferase reporter signal reduction – luminescence, H4-C neuroglioblastoma cells, dose response (AID 2458); format: functional, cell-based;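 note: H4 neuroglioblastoma cells stably carrying a luciferase reporter gene fusion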
# BJ [16] = assay: cells; format: functional, cell-based, Homo sapiens; conditions: Homo sapiens, BJ
# [17] = Luminescence Cell-Based Dose Response HTS to Identify Inhibitors of 5'UTR Stem-Loop Driven Prion Protein mRNA Translation in H4 Neuroglioblastoma Cells. [Related pubchem assays: 1827 (Project Summary), 1813 (Primary HTS)]; format: functional
# Sequence of Intestinal-type alkaline phosphatase (Homo sapiens, UniProt P09923) (P09923 whole entry): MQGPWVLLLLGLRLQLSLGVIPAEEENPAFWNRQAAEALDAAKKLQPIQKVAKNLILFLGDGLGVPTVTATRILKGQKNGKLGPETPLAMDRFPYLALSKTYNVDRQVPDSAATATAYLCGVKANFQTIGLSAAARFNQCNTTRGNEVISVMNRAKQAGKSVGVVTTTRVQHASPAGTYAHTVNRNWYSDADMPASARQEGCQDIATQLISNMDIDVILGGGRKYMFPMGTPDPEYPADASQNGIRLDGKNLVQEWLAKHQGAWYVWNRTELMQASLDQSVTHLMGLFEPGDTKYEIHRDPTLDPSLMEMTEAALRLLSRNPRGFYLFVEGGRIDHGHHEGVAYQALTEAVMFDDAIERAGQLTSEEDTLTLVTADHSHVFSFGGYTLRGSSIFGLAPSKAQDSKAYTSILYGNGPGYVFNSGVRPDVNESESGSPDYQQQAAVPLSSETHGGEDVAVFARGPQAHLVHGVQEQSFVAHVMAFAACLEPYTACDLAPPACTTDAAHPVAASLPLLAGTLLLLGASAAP
# Sequence of Intestinal-type alkaline phosphatase (Mus musculus, UniProt P24822) (P24822 whole entry): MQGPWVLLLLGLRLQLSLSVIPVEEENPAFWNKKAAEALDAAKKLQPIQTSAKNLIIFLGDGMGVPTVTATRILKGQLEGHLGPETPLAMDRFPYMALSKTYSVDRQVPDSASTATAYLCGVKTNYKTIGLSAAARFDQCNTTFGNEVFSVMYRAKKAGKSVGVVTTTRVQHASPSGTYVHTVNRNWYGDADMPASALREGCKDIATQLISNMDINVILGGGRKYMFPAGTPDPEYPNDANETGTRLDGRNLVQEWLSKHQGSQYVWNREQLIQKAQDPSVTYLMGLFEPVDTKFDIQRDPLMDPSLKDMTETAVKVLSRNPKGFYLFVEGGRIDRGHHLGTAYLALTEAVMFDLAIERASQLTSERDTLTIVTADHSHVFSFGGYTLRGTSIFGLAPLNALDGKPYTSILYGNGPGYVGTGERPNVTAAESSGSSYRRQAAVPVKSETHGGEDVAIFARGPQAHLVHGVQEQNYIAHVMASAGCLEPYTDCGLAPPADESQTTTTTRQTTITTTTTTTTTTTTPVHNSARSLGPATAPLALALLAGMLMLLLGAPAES
# Sequence of Exodeoxyribonuclease V (P04993 whole entry): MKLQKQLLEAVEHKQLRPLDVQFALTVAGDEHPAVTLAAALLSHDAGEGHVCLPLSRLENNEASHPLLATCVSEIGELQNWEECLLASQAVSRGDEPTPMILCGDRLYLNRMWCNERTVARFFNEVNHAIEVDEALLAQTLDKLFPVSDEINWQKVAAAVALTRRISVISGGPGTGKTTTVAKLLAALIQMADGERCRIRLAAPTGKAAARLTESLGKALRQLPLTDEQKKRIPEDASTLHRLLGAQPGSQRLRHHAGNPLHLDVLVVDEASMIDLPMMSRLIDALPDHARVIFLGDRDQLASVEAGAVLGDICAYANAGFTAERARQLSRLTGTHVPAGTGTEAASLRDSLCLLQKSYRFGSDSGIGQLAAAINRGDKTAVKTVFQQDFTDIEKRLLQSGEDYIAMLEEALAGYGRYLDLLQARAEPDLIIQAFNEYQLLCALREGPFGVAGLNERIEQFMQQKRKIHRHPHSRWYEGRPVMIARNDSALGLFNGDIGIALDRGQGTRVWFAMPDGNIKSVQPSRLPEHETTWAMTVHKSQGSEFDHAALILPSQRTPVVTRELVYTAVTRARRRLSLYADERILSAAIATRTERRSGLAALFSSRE
# Sequence of Exodeoxyribonuclease V (P07648 whole entry): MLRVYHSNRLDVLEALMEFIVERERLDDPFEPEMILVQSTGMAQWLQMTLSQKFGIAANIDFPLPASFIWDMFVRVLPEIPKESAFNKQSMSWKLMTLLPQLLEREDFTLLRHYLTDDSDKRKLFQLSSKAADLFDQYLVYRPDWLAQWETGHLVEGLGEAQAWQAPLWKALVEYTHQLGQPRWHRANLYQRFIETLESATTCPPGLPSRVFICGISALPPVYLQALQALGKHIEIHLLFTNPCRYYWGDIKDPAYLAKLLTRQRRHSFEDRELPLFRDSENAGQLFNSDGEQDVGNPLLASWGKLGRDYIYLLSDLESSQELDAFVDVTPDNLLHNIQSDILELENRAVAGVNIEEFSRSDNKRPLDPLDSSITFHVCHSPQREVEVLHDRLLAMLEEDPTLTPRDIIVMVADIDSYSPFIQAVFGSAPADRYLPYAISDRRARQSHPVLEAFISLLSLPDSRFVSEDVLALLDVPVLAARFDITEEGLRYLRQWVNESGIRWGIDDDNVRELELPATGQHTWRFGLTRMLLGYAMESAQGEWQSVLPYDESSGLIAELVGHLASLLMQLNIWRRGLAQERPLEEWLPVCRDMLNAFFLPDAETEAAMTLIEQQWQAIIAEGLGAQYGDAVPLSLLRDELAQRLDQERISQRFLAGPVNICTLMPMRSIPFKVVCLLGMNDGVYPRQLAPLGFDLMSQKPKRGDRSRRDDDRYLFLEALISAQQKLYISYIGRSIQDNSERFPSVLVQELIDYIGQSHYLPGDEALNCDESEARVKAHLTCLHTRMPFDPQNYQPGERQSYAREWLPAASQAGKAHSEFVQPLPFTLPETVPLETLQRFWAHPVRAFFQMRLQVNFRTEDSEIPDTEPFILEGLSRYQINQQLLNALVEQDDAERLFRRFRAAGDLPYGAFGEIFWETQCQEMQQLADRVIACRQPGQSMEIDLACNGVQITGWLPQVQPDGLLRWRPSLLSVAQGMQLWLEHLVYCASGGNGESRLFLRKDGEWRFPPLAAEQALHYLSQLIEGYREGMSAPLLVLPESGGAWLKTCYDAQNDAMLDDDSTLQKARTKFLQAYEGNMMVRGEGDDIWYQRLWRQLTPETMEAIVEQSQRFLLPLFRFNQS
# Sequence of Exodeoxyribonuclease V (P08394 whole entry): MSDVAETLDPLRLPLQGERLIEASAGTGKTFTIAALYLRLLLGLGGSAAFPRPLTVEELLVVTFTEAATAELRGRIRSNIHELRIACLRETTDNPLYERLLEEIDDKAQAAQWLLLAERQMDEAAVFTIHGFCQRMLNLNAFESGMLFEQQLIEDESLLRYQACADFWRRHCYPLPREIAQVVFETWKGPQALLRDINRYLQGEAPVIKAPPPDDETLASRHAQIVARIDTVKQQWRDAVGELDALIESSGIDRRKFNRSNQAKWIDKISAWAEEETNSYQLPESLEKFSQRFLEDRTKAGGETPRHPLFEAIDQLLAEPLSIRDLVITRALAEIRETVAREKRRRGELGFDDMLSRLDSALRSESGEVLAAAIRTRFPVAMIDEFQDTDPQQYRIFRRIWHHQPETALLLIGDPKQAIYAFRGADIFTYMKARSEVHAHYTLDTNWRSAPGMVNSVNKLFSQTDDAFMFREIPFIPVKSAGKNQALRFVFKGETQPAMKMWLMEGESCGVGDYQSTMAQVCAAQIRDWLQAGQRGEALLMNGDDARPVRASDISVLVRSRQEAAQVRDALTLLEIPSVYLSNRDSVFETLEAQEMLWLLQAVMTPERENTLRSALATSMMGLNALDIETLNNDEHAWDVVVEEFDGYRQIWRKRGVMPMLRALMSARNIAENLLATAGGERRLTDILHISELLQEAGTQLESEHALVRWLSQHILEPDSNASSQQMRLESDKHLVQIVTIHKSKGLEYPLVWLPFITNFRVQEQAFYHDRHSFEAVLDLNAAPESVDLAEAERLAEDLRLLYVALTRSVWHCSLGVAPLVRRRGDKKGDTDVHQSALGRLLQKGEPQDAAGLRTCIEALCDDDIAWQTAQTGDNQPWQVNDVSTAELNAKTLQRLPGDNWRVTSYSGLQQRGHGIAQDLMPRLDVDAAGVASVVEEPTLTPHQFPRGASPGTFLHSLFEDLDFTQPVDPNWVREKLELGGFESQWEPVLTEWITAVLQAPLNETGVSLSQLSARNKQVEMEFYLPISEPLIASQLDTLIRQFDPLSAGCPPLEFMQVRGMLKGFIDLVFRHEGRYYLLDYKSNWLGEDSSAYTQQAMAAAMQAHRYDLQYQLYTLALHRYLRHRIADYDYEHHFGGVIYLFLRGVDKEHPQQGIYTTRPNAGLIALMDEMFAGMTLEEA
compound,measurement,setting,value
S=C(NCc1ccccc1)NC1CCSc2ccccc21 (stereo unspecified),IC50,[1],45.5 µM (active)
same,IC50,[2],60.7 µM (active)
same,IC50,[3],3.3 µM (active)
Cc1ccc(C[n+]2c(-c3ccc(C)cc3)cc(-c3ccc(C)cc3)cc2-c2ccc(C)cc2)cc1.[O-][Cl+3]([O-])([O-])[O-],IC50,[4],18.5 µM (inactive)
same,EC50,BJ [5],2.7 µM (inconclusive)
same,IC50,[6],25.9 µM (inactive)
same,EC50,Streptococcus,7.91 µM (active)
same,EC50,cells,3.46 µM (active)
same,EC50,[7],3.71 µM (active)
same,EC50,[8],< 0.1 µM (active)
same,EC50,[9],0.793 µM (active)
same,EC50,[10],5.31 µM (active)
same,EC50,[11],1.31 µM (active)
same,EC50,Protein RecA,8.2 µM (active)
same,EC50,[12],< 0.1 µM (active)
same,AC50,[13],3.61 µM (active)
same,IC50,Exodeoxyribonuclease V,20.1 µM (inactive)
same,EC50,BJ [14],1.07 µM (inconclusive)
same,EC50,[15],1.62 µM (active)
same,EC50,BJ [16],1.23 µM (inconclusive)
same,EC50,[17],4.41 µM (active)
